# Source: patent US20060111289A1, “Compositions and methods of using Alpha-fetoprotein growth inhibitory peptides” (Serometrix, LLC,, priority 2004, published 2006)
# “Also recorded” adds a separate entry of the source.
# Legend:
# [1] = tested on: LNCaP human prostate tumor cells; test: Whole-cell voltage clamp of LNCaP cells; format: cell-based; details: 10 μM
# Protocol: LNCaP human prostate tumor cells were cultured on 5×5 mm plastic coverslips and were transferred to a microperfusion chamber on the stage of an inverted microscope. Whole-cell voltage clamp was accomplished with an Axopatch 200B (Axon Instr. Co., Union City, Calif.) using ruptured patches. Borosilicate glass capillaries (1.2 mm OD, 0.68 ID, type EN-I, Garner Glass Co., Claremont, Calif.) were used to fabricate patch pipettes (3-8 MΩ in the bath solution) with a Brown-Flaming horizontal micropipette puller (P-87, Sutter Instruments, San Rafael, Calif.). Patch-pipette tips were heat-polished prior to use. A micromanipulator (Narishige) fixed to the microscope positioned the pipettes. Electrode capacitance and access resistance were compensated prior to measurements. All experiments will be performed at room temperature (20-22° C.). The standard extracellular salt solution for ion currents contained (in mM): 150 NaCl, 6 KCl, 1.5 CaCl2, 1 MgCl2, 10 HEPES, 10 glucose, and pH adjusted to 7.4 with 1 N NaOH. […] Electrophysiological recordings were procured and analyzed using PClamp8 software (Axon Instr. Co, Union City, Calif.) and the WinASCD software (Guy Droogmans, Katholieke Universiteit; Leuven, B E). All results were recorded on computer hard drive or on digital audio tape (DAT). […]
# [2] = tested on: 6WI-1 mammary tumor cells; test: Mouse ascites mammary tumor assay (6WI-1 isograft); format: in vivo
# Protocol: The growth suppression of the mammary ascites tumor by AFP peptides and its fragments P149a, P149b and P149c, and control peptides were determined in non-estrogen dependent assays which measured tumor cell growth and ascites accumulation of 6WI-1 mammary transplanted NYLAR/nya mice. […] Tumor cell inocula included doses of 0.3, 1.0, and 3.0×10^6 cells which produced host mortality at 12-14 days which was lethal in 100% of the animals. Following peptide dose titration studies, mice inoculated with 6WI-1 mammary cells were injected with a previously-determined optimal dose of 1.0 μg peptide per day or saline for 11 days. On day 12 following inoculation, the total accumulated ascites fluid volume and tumor cells in the peritoneal cavity of each animal were harvested and the cell count determined.
# Inoculation of mice with all three cell doses led to an increase in body weight from 25 g (day 0) to approximately […] by day 12, due to the accumulation of tumor cells and ascites fluid in the intraperitoneal cavity. An average cell count in accumulated ascites fluid on day 12 was greater than 10^8 cells/ml with a total ascites volume approximating 20 mls. Tumor cell proliferation in this model has been reported to correlate with the volume of ascites fluid accumulated.
# The 6WI-1 mouse mammary tumor studies involving peptide and non-peptide treatment were further compared by histopathological analysis performed on hematoxylin/eosin stained tissue sections.
# MCF-7 and GI-101 cells = test: ATP luminescence cytostatic assay (6 days); format: cell-based, human; details: peptide 10^−12 to 10^−8 M
# Description: FIG. 2 presents exemplary data for both in vivo and in vitro growth suppressive activities of the GIP-derived P149 and control peptides are depicted in GI-101 human ductal breast carcinoma and in MCF-7 human glandular breast carcinoma. • Panels A and A2: GI-101 and MCF-7 xenograft in nude mice administered P149 time-release pellets for 60 days and 30 days, respectively (N=5 mice/group). • Panels B and B2: GI-101 and MCF-7 in cell cultures treated with P149 and P187 at concentrations from 10-8 to 10-12 M for 6 days and assayed by ATP luminescence reagent employing a luciferin-luciferase system. The ATP assay, used to distinguish between cytostasis versus cytotoxicity, was used to confirm that P149 was cytostatic in its cell inhibitory activity at 6 days (see text for details).
# In order to confirm whether P149 was indeed cytostatic, and not cytotoxic, an ATP-based cytostatic assay was performed which measures the decrease in cytosolic ATP during drug (i.e., for example, GIP peptide) treatment. This ATP luminescence assay has long been employed to distinguish between cytostatic versus cytotoxic chemotherapeutic sensitivity of drugs. […] After incubation of the cell cultures for 6 days, cytosolic ATP was extracted, stabilized, and quantitated from a standard curve produced from Berthold LB-96P luminometer readings using a luciferin-luciferase counting reagent.
# [3] = tested on: 6WI-1 mammary tumor cells; test: 6WI-1 mammary tumor in 15-day old mouse pups (6 day assay); format: in vivo; details: mouse, in vivo
# Description: As an alternative model of the 6WI-I mammary tumor in adult mice, an inocula of 1×10^6 tumor cells injected into 15-day old mouse pups provided a 6 day rather than a 12 day assay and replicated the same tumor growth suppression by GIP.
# [4] = 1 × 10^6 tumor cells I.P., daily injections for eleven days, N = 5
Sequence,Whole-cell membrane current [1],Suppression of accumulation of cells and ascites fluid volume (anticancer activity) ([2]; 1.0 μg peptide per day for 11 days),"Metastatic histopathological findings: Abdominal Muscle [2, 4]","Metastatic histopathological findings: Gross Findings [2, 4]","Metastatic histopathological findings: Kidney [2, 4]","Metastatic histopathological findings: Liver [2, 4]","Metastatic histopathological findings: Pancreas [2, 4]","Metastatic histopathological findings: Retro-peritoneal mesentery and fat [2, 4]","Metastatic histopathological findings: Spleen [2, 4]","Metastatic histopathological findings: Uterus + Ovary [2, 4]","Metastatic tumor infiltration, histopathology summary ([2]; mouse, in vivo)",Growth inhibition / decrease in cytosolic ATP in the ATP luminescence assay (MCF-7 and GI-101 cells),Growth inhibitory potency in the mouse pup model compared with P149 [3]
GINHLPSDAVGTAIEVMPCLRDGKLCIGAEHIEL (listed as Homo sapiens) [P327],no effect on membrane current,totally lacked anticancer activity,Focal tumor infiltrate,Presence of tumor,No infiltrate,No infiltrate,Distinct presence of,Extensive tumor infiltrate,No infiltrate,Tumor encased organ,high-to-moderate tumor infiltrates,,
LSENKLLACGEGAANIIIGHLCIRHEMTPVNPGV (listed as Homo sapiens) [P187],,,,,,,,,,,,significantly different; also recorded: equally responsive as P149 at 10^−8 M,slightly less growth inhibitory potency
